Assay results reported in US7253176B1, “Immunosuppressive effects of 8-substituted xanthine derivatives” (K.U. Leuven Research & Development, priority 2000, dated 2007).

Legend:
Assay type in all cases: cell-based, human
[1] = test system: Peripheral blood mononuclear cells (PBMC); experiment: Mixed lymphocyte reaction (MLR), [3H]-thymidine incorporation
From the text: (§1) Various models may be used for testing an immunosuppressive effect. In vivo, for example, different transplantation models are available. They are strongly influenced by different immunogenicities, depending on the donor and recipient species used and depending on the nature of the transplanted organ. The survival time of transplanted organs can thus be used to measure the suppression of the immune response. In vitro, there exist also various models. The most used are lymphocyte activation tests. Usually activation is measured via lymphocyte proliferation. Inhibition of proliferation thus always means immunosuppression under the experimental conditions applied. There exist different stimuli for lymphocyte activation: • coculture of lymphocytes of […] (MLR=mixed lymphocyte reaction): lymphocytes expressing different minor and major antigens of the HLA-DR type (=allogens) activate each other non-specifically. • CD3 assay: here there is an activation of the T-lymphocytes via an exogenously added antibody (OKT3). This antibody reacts against the CD3 molecule located on the lymphocyte membrane. This molecule has a […]. […] This molecule is also located on the lymphocyte membrane, and delivers strong costimulatory signals. […] Reagents
Mixed Lymphocyte Reaction
Peripheral blood mononuclear cells (PBMC) were isolated from heparinized peripheral blood by density gradient centrifugation over Lymphoprep (Nycomed, Maorstua, Norway). Allogeneic PBMC or EBV-transformed human B cells [RPMI1788 (ATCC name CCL156)] which strongly express B7-1 and B7-2 were used as stimulator calls after irradiation with 30 Gy. MLR was performed in triplicate wells. After 5 days incubation at 37° C., 1 μCi [^3H]-thymidine was added to each cup. After a further 16 hours incubation, cells were harvested and counted in a β-counter.
The percent suppression of proliferation by drugs was counted using the formula: […]

[2] = test system: Highly purified T cells; experiment: T cell proliferation induced by anti-CD3 mAb+PMA (BrdU); conditions: for IC50: read-out: IC50 aCD3
From the text: T cells were purified by removing non-T cells. Briefly, monocytes were removed by cold agglutination. The resulting lymphoid cells were further purified by a cell enrichment immunocolumn [Cellect Human T (Biotex, Edmonton, Alberta, Canada)] by a process of negative selection.
(§2) Measurements of T Cell Proliferations Induced by Anti-CD3 mAB+PMA or Anti-CD28 mAb+PMA
(§3) Highly purified T cells (10^6/ml) were stimulated by immobilized anti-CD3 or anti-CD28 mAb in the presence of PMA. Anti-CD3 mAb (CLB-CD3; CLB, Amsterdam, The Netherlands) were fixed on the 96-microwell plates by incubating the wells with 50 μl of mAb solution […] 50 μl (1/650 dilution in culture medium) was added directly to the wells. Further, 20 μl PMA (Sigma, St. Louis, Mo., USA) solution (final concentration: 0.5 ng/ml) was added. Subsequently, 20 μl of immunosuppressants were added by serial dilution in triplicate wells. Finally 100 μl of the T cell suspension (10^6/ml) was added. After 48-hour incubation at 37° C. in 5% CO2 20 μl BrdU (100 μM solution) (Cell Proliferation Elisa, Boehringer-Mannheim Belgium) was added to each well. After a further overnight incubation the T cell proliferation was measured using a calorimetric immunoassay for qualification of cell proliferation based on measurements of the incorporation of BrdU during DNA synthesis. The optical density (OD) was measured by a Behring EL311 place reader at 450 nm (reference wavelength: […]). The percent suppression of proliferation by drugs was counted using the formula: […]

[3] = test system: Highly purified T cells; experiment: T cell proliferation induced by anti-CD28 mAb+PMA (BrdU); conditions: anti-CD28 mAb+PMA pathway, read-out: IC50 aCD28
From the text: as §1
T cells were purified by removing non-T cells. Briefly, monocytes were removed by cold agglutination. The resulting lymphoid cells were further purified by a cell enrichment immunocolumn [Cellect Human T (Biotex, Edmonton, Alberta, Canada)] by a process of negative selection. More than 95% of the B cells were removed with this procedure. After depletion, the resulting T cell preparation was highly purified explaining these cells could not be activated by PHA or rIL-2 alone at concentrations capable of stimulating RBMC prior to deletion.
as §2, §3

[4] = lowest concentration giving 50% suppression of the MLR

Row | Compound | IC50 [1, 4] | IC50 ([2]; anti-CD3 mAb+PMA pathway) | IC50 [3] | also measured
1 | C#CCn1c(=O)n(C)c(=O)c2c1ncn2C [Compound 67, 1,7-dimethyl-3-propynylxanthine] | > 200 µM | > 200 µM | – | –
2 | Cn1cnc2c1c(=O)n(CCCC(=O)O)c(=O)n2C [Compound 23, 1-(3-carboxypropyl)-3,7-dimethylxanthine] | – | – | – | IC50 ([1]; Homo sapiens, PBMC, lowest concentration giving 50% suppression of the MLR): > 200 µM; IC50 ([2]; Homo sapiens, T-cell, anti-CD3 mAb+PMA pathway): > 200 µM; IC50 ([3]; Homo sapiens, T-cell): > 200 µM
3 | Cn1c(=O)c2[nH]cnc2n(CC(C)(C)C)c1=O [Compound 69] | 120 µM | 110 µM | 45 µM | –
4 | Cn1c(=O)c2[nH]c(-c3ccc(-c4ccccc4)cc3)nc2n(C)c1=O [Compound 115] | 110 µM | > 200 µM | 160 µM | –
5 | 1,3-dipropyl-8-[4-dimethylamino(propyl(amino-(sulfonyl))))fenyl]xanthine [Compound 40] | 25 µM | 60 µM | 70 µM | –
6 | CC(O)CCCCn1c(=O)c2c(ncn2C)n(C)c1=O (stereo not shown) [Compound 25] | > 200 µM | 140 µM | 160 µM | –
7 | CC(C)n1c(=O)n(C)c(=O)c2[nH]cnc21 [Compound 71] | 160 µM | – | – | –
8 | Cn1c(=O)c2[nH]c(C3CCCC3)nc2n(C)c1=S [Compound 64] | > 200 µM | > 200 µM | > 200 µM | –
9 | CCCn1c(=O)c2[nH]c(-c3ccc(OCC(=O)OCC)cc3)nc2n(CCC)c1=S [Compound 29] | > 200 µM | 150 µM | 130 µM | –
10 | 1,3,7-tripropyl-8-fenylxanthine [Compound 113] | 20 µM | 110 µM | 90 µM | –
11 | CCOC(=O)CCCn1c(=O)c2c(ncn2C)n(C)c1=O [Compound 24, 1-(3-ethoxycarbonyl)propyl-3,7-dimethylxanthine] | > 200 µM | 170 µM | 150 µM | –
12 | 1,7-diallyl-3-propyl-8-fenylxanthine [Compound 114] | 15 µM | 85 µM | 70 µM | –
13 | Cn1c(=O)c2[nH]c(-c3ccco3)nc2n(C)c1=S [Compound 60] | > 200 µM | – | 190 µM | –
14 | CCCn1c(=O)c2[nH]c(-c3ccc(OCC(=O)O)cc3)nc2n(CCC)c1=S [Compound 28] | 120 µM | 150 µM | 75 µM | –
15 | 1,3,7-trimethyl-8-(4-trifluoromethylfenyl)-xanthine [Compound 10] | 50 µM | 20 µM | 30 µM | –
16 | CCCn1cnc2c1c(=O)n(CCCCC(C)O)c(=O)n2C (stereo not shown) [Compound 26] | 100 µM | 100 µM | 100 µM | –
17 | CCCn1c(=O)c2[nH]c(-c3ccsc3)nc2n(CCC)c1=O [Compound 15] | – | > 200 µM | 170 µM | –
18 | C=CCn1c(=O)c2c(nc(-c3ccc(-c4ccccc4)cc3)n2CC=C)n(CCC)c1=O [Compound 117, 1,7-diallyl-3-propyl-8-(p-bifenyl)xanthine] | 15 µM | 30 µM | 30 µM | –
19 | Cn1c(=O)c2[nH]c(-c3ccc(S(N)(=O)=O)cc3)nc2n(C)c1=O [Compound 125] | 160 µM | 150 µM | 90 µM | –
20 | 1,7-diallyl-3-propyl-8-(4-chlorofenyl)xanthine [Compound 119] | 15 µM | 50 µM | 30 µM | –
21 | CCCn1c(=O)c2[nH]c(C3CCCC3)nc2n(CCC)c1=S [Compound 65] | > 200 µM | 135 µM | 75 µM | –
22 | Cn1c(=S)c2[nH]c(C3CCCC3)nc2n(C)c1=O [Compound 17] | 80 µM | 30 µM | 40 µM | –
23 | C=CC[C@@H]1/C=C(\C)C[C@H](C)C[C@H](OC)[C@H]2O[C@@](O)(C(=O)C(=O)N3CCCC[C@H]3C(=O)O[C@H](/C(C)=C/[C@@H]3CC[C@@H](O)[C@H](OC)C3)[C@H](C)[C@@H](O)CC1=O)[C@H](C)C[C@@H]2OC [FK506, reference compound] | – | – | – | IC50 ([1]; Homo sapiens, PBMC, immunosuppressants for comparison): 0.001 µM; IC50 ([2]; Homo sapiens, T-cell, immunosuppressants for comparison, anti-CD3 mAb+PMA): 0.001 µM; activity in the anti-CD3+PMA test ([2]; in words): active
